Key:
[1] = tested on: p-Smad2/3 and Smad7 in MRC-5 cells; assay: p-Smad2/3 and Smad7 expression in fibroblasts; type: cell-based, human; details: 5 mM NAC pre-treatment 1 h, TGF-β1 1 h
Experimental: The present inventors pre-treated a human pulmonary fibroblast cell line MRC-5 with 40 μM stearic acid for 16 hours, treated the MRC-5 cells with TGF-β1 for 1 hour, and then examined the expression levels of p-Smad2/3 and Smad7 in order to elucidate the anti-fibrotic mechanism of stearic acid in human pulmonary fibroblasts (FIGS. 12A and 12B). Further, to investigate the effect of stearic acid on the production of reactive oxygen species (ROS), MRC-5 cells were pre-treated with 40 μM stearic acid for 16 hours, and cells treated with TGF-β1 for 1 hour were stained with DCF-DA and analyzed by FACS (FIG. 12C). Furthermore, MRC-5 cells were pre-treated with 5 mM N-acetylcysteine (NAC), which is an antioxidant, for 1 hour and treated with TGF-β1 for 1 hour, and then the expression of p-Smad2/3 was examined (FIG. 12D).

[2] = tested on: human primary fibroblasts; assay: Combined treatment of stearic acid and nintedanib in human primary fibroblasts; type: cell-based
Experimental: The primary fibroblasts derived from the patients with idiopathic pulmonary fibrosis used in the following experiment were cultured for 7 to 10 days while cutting the lung tissue of the patient into 1×1 mm^2 slices, and then periodically exchanging a cell culture solution (Eagle's minimal essential medium; EMEM) supplemented with 100 unit/ml penicillin, 100 μg/ml streptomycin, and 10% fetal bovine serum (FBS) under conditions of 5% CO2 and 37° C., and cells of passage 2 to 5 were used for the experiment. To verify the anti-fibrotic effect by the combined treatment of stearic acid and nintedanib, which is another therapeutic agent for idiopathic pulmonary fibrosis, human primary fibroblasts were respectively or simultaneously treated with 5 ng/ml TGF-β, 40 μM stearic acid, and 1.5 or 2 μM nintedanib for 24 hours, and then the expression levels of collagen type 1 (COL-1) and α-SMA, which are markers of fibrosis, were measured, respectively.

pulmonary fibroblasts = assay: Collagen 1 and α-SMA immunoblotting in pulmonary fibroblasts; type: cell-based, human; details: relative to control
Experimental: After epithelial cells and fibroblasts were aliquoted into 6-well plates at 2×10^4 cells/well and a stabilization time was imparted for 24 hours, and 15 hours after deficiency, cells were treated with stearic acid (40 uM/mL), TGF-β (5 ng/mL), and stearic acid (40 uM/mL)+TGF-β (5 ng/mL) in this order. After the cells were cultured in an incubator for 24 hours after the treatment, the next-step experiment was performed. After 24 hours of cell stimulation by the method of Example 1-3, the cells were washed twice with iced phosphate buffer saline (PBS), a protein lysate solution was put thereinto, the cells were scraped out and collected in a 1.5 ml EP tube, and then the cells were lysed in a grinder for 30 seconds. Next, centrifugation was performed at a speed of 14,000 rpm at 4° C. for 20 minutes, and the protein was quantified using the BCA analysis method. Thereafter, the protein sample was boiled at 95° C. for 10 minutes for the same amount of protein, and then the expression levels of collagen type 1 and α-SMA were measured by immunoblotting. After the expression level of the protein was confirmed, a significance test between samples was performed using a statistical program. […] The collagen 1/actin or α-SMA/actin indicated on the y-axis of FIGS. 4A and 4B means a value obtained by correcting the protein amount of collagen 1 or α-SMA with the amount of actin, which is an intracellular control protein. […] Further, referring to the test method of obtaining the results in FIG. 4, after pulmonary fibroblasts were treated with palmitic acid at various concentrations (10, 20, and 40 μM/mL), the levels of collagen 1 (collagen 1/actin; FIG. 6A) and α-SMA (α-SMA/actin; FIG. 6B), which are intracellular fibrosis markers, were measured, and shown as relative values to the control (CTL; medium only). […] 40 uM/mL stearic acid, 10 uM/mL palmitic acid, and 5 ng/mL TGF-β were used in the experiment, respectively. […] In addition, referring to the test method of obtaining the results in FIG. 7, the experiment was performed using oleic acid (OA) instead of palmitic acid, and the levels of collagen 1 (collagen 1/actin; FIG. 8A) and α-SMA (α-SMA/actin; FIG. 8B) were measured and shown as relative values to the control (CTL; medium only). 40 uM/mL stearic acid, 40 uM/mL oleic acid, and 5 ng/mL TGF-β were used in the experiment, respectively.

[3] = tested on: human pulmonary epithelial cells (BEAS-2B); assay: Cell viability (MTT) of human pulmonary epithelial cells; type: cell-based; details: palmitic acid 10, 20 and 40 μM/mL alone
Experimental: (§1) After epithelial cells and fibroblasts were aliquoted into 6-well plates at 2×10^4 cells/well and a stabilization time was imparted for 24 hours, and 15 hours after deficiency, cells were treated with stearic acid (40 uM/mL), TGF-β (5 ng/mL), and stearic acid (40 uM/mL)+TGF-β (5 ng/mL) in this order. After the cells were cultured in an incubator for 24 hours after the treatment, the next-step experiment was performed.
(§2) After a 24-hour cell stimulation by the method in Example 1-3 was completed, the medium of epithelial cells and fibroblasts was replaced with a general culture medium, 10 μl of an MTT solution (20 mg/ml) was further added, and then the outside of the plate was wrapped with aluminum foil and cells were cultured in an incubator for 2 hours. […] After 2 hours, cell activation was measured at an absorbance value of 595 nm using an ELISA reader.
(§3) For this purpose, after each culture (BEGM(Lonza) in the case of MRC-5, and BMEM (ATCC) in the case of BEAS-2B) of human pulmonary fibroblasts (MRC-5; ATCC® CCL171™) and human pulmonary epithelial cells (BEAS-2B; ATCC® CRL9609™) was treated with stearic acid (40 uM/mL), TGF-β (5 ng/mL; Sigma), or stearic acid (40 uM/mL)+TGF-β (5 ng/mL) by the method described in Example 1-3 for 24 hours, cell viability was measured by the method in Example 1-4. […]

[4] = tested on: human pulmonary fibroblasts (MRC-5); assay: Cell viability (MTT) of human pulmonary fibroblasts; type: cell-based; details: palmitic acid 10, 20 and 40 μM/mL alone
Experimental: as §1, §2, §3

[5] = tested on: human pulmonary epithelial cell line Beas-2B; assay: Fibronectin (EMT marker) expression under combined treatment in epithelial cells; type: cell-based; details: TGF-β 5 ng/ml; pirfenidone 800 μM, stearic acid 40 μM
Experimental: FIG. 15 illustrates, as the results of confirming the anti-fibrotic effect according to the combined treatment with stearic acid and pirfenidone in a human pulmonary epithelial cell line BEAS-2B, the results of treating the cells with TGF-β (5 ng/ml), stearic acid (40 μM), and/or pirfenidone (800 μM), and then measuring the expression of fibronectin with a marker of EMT, which is one of the pulmonary fibrosis indices, and quantitatively analyzing the inhibitory efficiency thereof (TGF: TGF-β single treatment group, TGF+PIR: TGF-β and pirfenidone treatment group, TGF+Combi: TGF-β and pirfenidone+stearic acid combined treatment group).
In addition to the results of Example 3-1-1, the present inventors tried to analyze the degree of epithelial to mesenchymal transition (EMT), which is one of the indices for pulmonary fibrosis, during the combined treatment with stearic acid and pirfenidone by treating a human pulmonary epithelial cell line Beas-2B with 800 μM, and for this purpose, the expression level of fibronectin, which is one of the EMT markers, was measured.

[6] = tested on: human primary fibroblasts; assay: Combined treatment of stearic acid and pirfenidone in human primary fibroblasts (western blotting); type: cell-based; details: TGF-β single treatment group set to 100%; corrected with actin
Experimental: The primary fibroblasts derived from the patients with idiopathic pulmonary fibrosis used in the following experiment were cultured for 7 to 10 days while cutting the lung tissue of the patient into 1×1 mm^2 slices, and then periodically exchanging a cell culture solution (Eagle's minimal essential medium; EMEM) supplemented with 100 unit/ml penicillin, 100 μg/ml streptomycin, and 10% fetal bovine serum (FBS) under conditions of 5% CO2 and 37° C., and cells of passage 2 to 5 were used for the experiment.
To verify the anti-fibrotic effect by the combined treatment of stearic acid and pirfenidone, which is a therapeutic agent for idiopathic pulmonary fibrosis, the human primary fibroblasts isolated by the above-described method were respectively or simultaneously treated with 5 ng/ml TGF-β, 40 μM stearic acid, and 400 or 800 μM pirfenidone for 24 hours, and then the expression levels of collagen type 1 (COL-1) and α-SMA, which are markers of fibrosis, were measured by western blotting, and the inhibitory rate was quantitatively analyzed by correcting the amount of each protein with the amount of actin, which is an intracellular control protein.

[7] = tested on: pulmonary fibrosis induced by bleomycin; assay: Combined stearic acid and pirfenidone in bleomycin pulmonary fibrosis animal model; type: in vivo, mice (C57BL/6J); details: 3 mg/kg stearic acid, 300 mg/kg pirfenidone oral once every 2 days for 2 weeks
Experimental: In addition to the results of the above examples, the present inventors sought to confirm the anti-fibrotic effect by the combined treatment of stearic acid and pirfenidone in a pulmonary fibrosis animal model. For this purpose, 8-week-old mice (C57BL/6J) were anesthetized with 50 mg/kg […] and 5 mg/kg Rompun, followed by injection of bleomycin and saline into the trachea. From 7 days after administration of bleomycin, 3 mg/kg stearic acid, 300 mg/kg pirfenidone or the two drugs were orally administered at the same time once every 2 days for 2 weeks, and changes in mouse body weight were measured up to 21 days after administration of bleomycin.

[8] = 1.5 μM nintedanib single treatment versus TGF single treatment
[9] = 2 μM nintedanib single treatment versus TGF single treatment
[10] = palmitic acid 10, 20 and 40 μM/mL alone

## CC(=O)N[C@@H](CS)C(=O)O [NAC, N-acetylcysteine, reference compound]
[1]
  expression of p-Smad2/3 induced by TGF-β1: inhibited

## COC(=O)c1ccc2c(c1)NC(=O)/C2=C(\Nc1ccc(N(C)C(=O)CN2CCN(C)CC2)cc1)c1ccccc1 [nintedanib]
[2]; [8]
  expression level of COL-1: no change
  expression level of α-SMA: no change
[2]; [9]
  expression level of COL-1: no change
  expression level of α-SMA: no change
[2]; Homo sapiens, Col1, 2 μM nintedanib, 40 μM stearic acid, COL-1 expression caused by TGF assumed 100%, read-out: inhibitory rate against COL-1
  inhibition at 2 µM: 110%

## CCCCCCCC/C=C\CCCCCCCC(=O)O [oleic acid, reference compound]
Pulmonary fibroblasts; oleic acid 40 uM/mL alone
  collagen 1/actin: activated pulmonary fibrosis at the same level as in TGF-β
  α-SMA/actin: activated pulmonary fibrosis at the same level as in TGF-β

## CCCCCCCCCCCCCCCC(=O)O [palmitic acid, reference compound]
[3]
  cell viability of pulmonary epithelial cells: decreased according to the treatment concentration
Pulmonary fibroblasts; [10]
  collagen 1/actin: increased at levels similar to that in the case where pulmonary fibroblasts were treated with only TGF-β
  α-SMA/actin: increased at levels similar to that in the case where pulmonary fibroblasts were treated with only TGF-β
[4]
  cell viability of pulmonary fibroblasts: increased according to the concentration

## Cc1ccc(=O)n(-c2ccccc2)c1 [pirfenidone]
[5]
  expression of fibronectin, quantitative analysis of inhibitory efficiency: about 120%
[6]
  inhibitory rate of COL-1: 157%
[7]
  hydroxyproline inhibition, quantitative analysis: 105%
[7]; versus bleomycin group
  level of hydroxyproline: partially reduced
[7]; up to day 21 after bleomycin
  body weight: further reduced

— patent US20210205253A1, “Use Of Stearic Acid For Preventing Or Treating Pulmonary Fibrosis” (THE ASAN FOUNDATION, priority 2018, published 2021)
